Laboratory results from paper PMC9948168, “Vanillin-Based Indolin-2-one Derivative Bearing a Pyridyl Moiety as a Promising Anti-Breast Cancer Agent via Anti-Estrogenic Activity” (ACS Omega, 2023).
“And” between values parts separate entries of the source, which are not always exact repeats. Equal entries are not always repeated.

How the values were obtained:
[1] = system: estrogen-induced uterotrophic effect; experiment: In vivo anti-estrogenic (anti-uterotrophic) activity, immature rat model; design: species or system Wistar immature female rats; conditions: oral, 20 mg/kg (tamoxifen 20 mg/kg/day, 6j equimolar per method), 3 days, with estradiol 10 μg/kg/day s.c.; immature female rats
Protocol: The anti-estrogenic activity was assessed as previously described.[65]−[67] All experiments were carried out in accordance with the recommendations of the […] Animal Care and Use Committee. The experimental protocol was approved by “The Commission on the Ethics of Scientific Research”, Faculty of Pharmacy, Minia University (no. ES30/2021). 20-day-old Wistar immature female rats (40–50 g) from the animal care facility of Nahda University at Beni Suef (NUB) were allowed to acclimatize to lab conditions for 3 days before the experiment with free access to food and water. Estradiol was diluted in olive oil and subcutaneously injected on the loose dorsal skin in a dose of 10 μg/kg/day. […] Both compounds were dissolved in a mixture of DMSO, Tween 20, and saline (1:1:8, respectively) and orally administered. The rats were randomly assigned to […] (n = 6) subjected to daily s.c. injections of estradiol, except for the control group. […] On the 4th day, all rats were sacrificed by cervical dislocation, and the uteri were dissected free of fat and weighed immediately. […] The results were expressed as percent inhibition from the formula [drawing 1] […] It is noteworthy that doses of the tested compounds are calculated on a molar basis. […] Values are expressed as mean ± SEM.

ER-α = experiment: In vitro ER-α inhibitory ELISA assay in MCF-7 cells; assay type: cell-based, human; conditions: 1 μg/mL, 24 h
Protocol: An in vitro ER-α inhibitory ELISA assay was performed using a Human ER-α/Estrogen Receptor ELISA Kit (Sandwich ELISA) (Lifespan Biosciences, Seattle, Washington, USA) as previously described.[64] The cells were plated at a density of 2000 cells/well in a 96-well plate. […] After 24 h, the pellets of the cells were collected by centrifugation. The cells were washed three times with PBS and then lysed by ultrasonication, and the supernatant was collected for testing. The wells were loaded with 100 μL of either standards or samples and incubated for 90 min at 37 °C. The wells were washed with 1× wash buffer for removing any unbound sample and 100 μL 1× biotinylated detection antibody was next put in and incubated for 1 h at 37 °C. The wells were rewashed with 1× wash buffer, and 100 μL 1× HRP conjugate was then added and incubated for 30 min at 37 °C. A third wash with 1× wash buffer was done and 90 μL of the TMB substrate was added. The TMB substrate reacted with the HRP enzyme, ensuring a color development, and the reaction was terminated using 50 μL of a stop solution. Finally, the optical density (OD) of the well was measured at a wavelength of 450 nm ± 2 nm. The OD of an unknown sample was calculated by correlation with a standard curve generated by standards with known concentrations.

Solubility test by HPLC = assay type: physicochemical
From the text: Studying drug solubility is a crucial part of the pre-formulation study. It is an integral phase that every drug has been through in any development process to determine its bioavailability and the best excipients used during formulation. The solubility of compound 6j was detected using HPLC in methanol, ethanol, and acetonitrile. […] With such results, compound 6j requires the addition of a surfactant to increase its solubility, especially in water. Different types of surfactants could be used to study their effect on increasing solubility in future plans. We see that this compound has the potential to go through the formulation study. […] Accordingly, the active compound 6j was analyzed with SwissADME. The physicochemical properties of compound 6j, molecular weight (392.83 g/mol), fraction Csp3 (0.09), rotatable bonds (5), H-bond acceptors (4), H-bond donors (1), molar refractivity (112.41), and topological polar surface area (TPSA) (60.45 Å^2) were measured. For lipophilicity, log Po/w (XLOGP3) (3.93), log Po/w (WLOGP) (3.98), log Po/w (MLOGP) (2.66), log Po/w (SILICOS-IT) (5.03) and consensus It was measured as log Po/w (3.75). […] The drug-likeness status of 6j was detected as suitable according to Lipinski, Ghose, Veber, Egan, and Muegge’s limited rules.[44] […]

SMILES: COc1cc(C=C2C(=O)Nc3ccc(Cl)cc32)ccc1OCc1ccccn1 (mixture of isomers) [6j]
- anti-uterotrophic activity (inhibition of estrogen-induced uterine weight) [1]: 38%
- ER-α pg/mL (mean ± SEM) (ER-α): 424.9 ± 17.2 pg/mL
- inhibition (%) of ER-α (ER-α; compared to control): 62% and 62.4%
- water solubility (Solubility test by HPLC): did not detect any water solubility
